Measurements reported in patent US20190125735A1, “INHIBITION OF P38 MAPK FOR THE TREATMENT OF CANCER” (Board of Regents, The University of Texas System, priority 2015, published 2019).
Entries after “also recorded” stand apart in the source; their conditions may differ.

Experiments:
HMLER cells = test: Scratch/wound-healing assay, HMLER cells expressing FOXC2 variants; assay type: cell-based, human
Procedure: For this, phosphomimetic FOXC2(S367E) and non-phosphorylatable FOXC2(S367A) mutants were generated and their ability to bestow mesenchymal and stem-cell traits relative to wild-type FOXC2 (referred to as FOXC2) was evaluated.

HMLE cells = test: FOXC2 immunostaining at leading edge of scratched HMLE monolayer; assay type: cell-based, human; settings: 9 h post-wound
Procedure: FIGS. 13A-13F: FOXC2 expression correlates with p38 activation in cells with mesenchymal and stem cell properties. […] (B) Cell lysates from the indicated cells were analyzed by immunoblotting for p-p38, p38 and FOXC2. β-actin was used as a loading control. […] Cell lysates were analyzed by immunoblotting for FOXC2. β-actin was used as a loading control (D) The indicated cells were transduced with p38 shRNA (shp38) or control shRNA (shControl). Cell lysates were analyzed by immunoblotting for p38 and FOXC2. β-actin was used as a loading control. […] (F) For the wound healing assay, a confluent monolayer culture of epithelial HMLE cells was scratched with a sterile pipette tip. […] Nuclei were counterstained with DAPI. Scale bar, 20 μm.

[1] = system: HMLE-Snail-ER and HMLE-Twist-ER cells; test: FACS CD44high/CD24low of 4-OHT-treated HMLE-Snail-ER and HMLE-Twist-ER cells; assay type: cell-based, human; settings: 4-OHT-treated cells, SB203580 exposure
Procedure: FIGS. 15A-15L: p38 inhibition compromises the acquisition and maintenance of EMT and stem cell properties in vitro. […] Cells were harvested and the corresponding lysates were analyzed by immunoblotting for FOXC2, E-cadherin and mesenchymal markers. β-actin was used as a loading control. […] Cells were harvested at the indicated timepoints and the corresponding lysates were analyzed by immunoblotting for FOXC2, E-cadherin and mesenchymal markers. β-actin was used as a loading control. […] One thousand cells were seeded per well in ultra-low attachment plates and cultured for 7-10 days. Spheres with a diameter greater than 75 μm were counted. The data are reported as the number of spheres formed/1000 seeded cells±SEM. […] Data are presented as mean±SEM. […] The corresponding lysates were analyzed by immunoblotting for FOXC2, E-cadherin and mesenchymal markers. β-actin was used as a loading control. (F) The sphere-forming efficiency of 4-OHT-treated HMLE-Twist-ER cells, transduced with control shRNA (shControl) or p38 shRNA (shp38), was determined. […] (H) The sphere-forming efficiency of the indicated cells was determined in the presence of vehicle or SB203580. […] (J) The relative wound closure by the indicated cells, treated with vehicle or SB203580, was measured by image analysis and represented in a graphical format. […] Degradation of FITC-gelatin was quantified by image analysis. n=150 cells/sample. […]

[2] = system: HMLE-Snail, HMLE-Twist, MDA-MB-231 and SUM159 cells; test: FACS CD44high/CD24low of mesenchymal mammary cells; assay type: cell-based, human; settings: relative to vehicle-treated cells
Procedure: It was next ascertained whether p38 inhibition compromises the maintenance of the established EMT phenotype.
Quantification of invadopodia (Eckert et al., 2011), scratch/wound-healing assays (Sarkar et al., 2015) fluorescence-activated cell sorting (FACS), and sphere-formation assays (Mani et al., 2008) were conducted as described previously.

[3] = system: BCR-ABL+ mouse ALL cells seeded on MSCs (OP9 cells); test: Clinical compound library screen, imatinib-pretreated MSC / BCR-ABL+ ALL cell co-culture; assay type: cell-based
Procedure: The effectiveness of the compounds was determined in preventing cluster formation by microscopy and the toxicity of the compounds by bioluminescence imaging of co-cultured MSCs and leukemic cells.
The clinical compounds library was purchased from the John S. Dunn Gulf Coast Consortium for Chemical Genomics (Houston, Tex.). […] Then, luciferase-labeled BCR-ABL+ mouse ALL cells were seeded on to the MSCs. Treatment was continued for 1 day, and the samples were evaluated via phase-contrast microscopy for the formation of leukemic cell clusters underneath the pretreated MSCs. To determine the compounds' toxicity in MSCs or leukemic cells, we examined the MSC/ALL cell co-cultures via microscopy and/or bioluminescence imaging.
Phase-contrast images of co-cultured MSCs and ALL cells were obtained using an Axio Observer.Z1 microscope, an AxioCam MR camera, and AxioVision software (Zeiss, Oberkochen, Germany). For screening, a cluster was defined as a group of more than five leukemic cells under the MSCs. The total number of leukemic cell clusters was the average number of clusters from three different fields (10× objective). For post-screening experiments, a cluster was defined as a group of more than 10 leukemic cells under the MSCs. The total number of leukemic cell clusters was the average number of clusters from 10 different fields (10× objective).

In the case of `C[S+]([O-])c1ccc(-c2nc(-c3ccc(F)cc3)c(-c3ccncc3)[nH]2)cc1` (stereo not shown) [SB203580, 4-(4-Fluorophenyl)-2-(4-methylsulfinylphenyl)-5-(4-pyridyl) 1H-imidazole], the Decrease in wound-closure (HMLER cells; HMLER-FOXC2(S367E) cells) is reported as < 30%, the “Inhibition of migration (wound closure)” value (HMLER cells; HMLER-FOXC2 cells) is reported as > 70% and the “Inhibition of migration (wound closure)” value (HMLER cells; HMLER-vector cells) is reported as > 70%. The “Upregulation of FOXC2 at the leading edge of scratch” value (HMLE cells) was “abrogated the upregulation of FOXC2 at the leading edge”, the “CD44^high/CD24^low marker profile” value [1] was “failed to acquire” and the “Percentage of cells displaying the CD44^high/CD24^low antigenic profile” value [2] was “substantially reduced”. For the same compound, the “Imatinib-induced leukemic cell cluster formation” value [3] was “directly prevented imatinib-induced leukemic cell cluster formation; also recorded: potently inhibited the formation of imatinib-induced leukemic cell clusters”.
